In this experiment the target is T1, PD-1/PD-L1 (Homo sapiens, UniProt Q9NZQ7).
T1 construct: TVMV protease site (C); made in house; host or cells: HEK293T cells
Briefly: PD-1/PD-L1 Homogenous Time-Resolved Fluorescence (HTRF) binding assay. Conditions: PD-1-Ig 20 nM. A digest of the protocol:
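Inhibitors pre-incubated 15 min with PD-L1-His (10 nM final) in dPBS, 0.1% BSA, 0.05% Tween-20, then 15 min with PD-1-Ig (20 nM final). Eu-cryptate anti-Ig (1 nM) and APC anti-His (20 nM) added, 30 min equilibration; HTRF 665/620 nm ratio. Human ECD proteins from HEK293T.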

Setting [1] is: PD-L1-His 10 nM, read-out: HTRF IC50.

Like-named read-outs stand apart in the source and are kept apart here. Starred links: 1 amine or outer side, 2 acyl side, 3 side chain; linkers in the order of their positions; H or OH if unused. Positions of bridges follow the written chain, without caps; N, C: chain ends. Non-standard residues stand in square brackets, D forms with d. Residues, ends and D or L forms follow the SMILES beside them. *: point of attachment. Cholyl = C[C@H](CCC(=O)*)[C@H]1CC[C@H]2[C@@H]3[C@H](O)C[C@@H]4C[C@H](O)CC[C@]4(C)[C@H]3C[C@H](O)[C@]12C; X18 = CCN(CC)CCCNC(=O)Cn1cc(C[C@H](N[*:1])C(=O)[*:2])c2ccccc21; Hyp = O=C(O)[C@@H]1C[C@@H](O)CN1; NMeNle = CCCC[C@H](NC)C(=O)O; NMeA = CN[C@@H](C)C(=O)O; Dab = NCC[C@H](N)C(=O)O; Dap = NC[C@H](N)C(=O)O

T1 sequence (Q9NZQ7 18-239): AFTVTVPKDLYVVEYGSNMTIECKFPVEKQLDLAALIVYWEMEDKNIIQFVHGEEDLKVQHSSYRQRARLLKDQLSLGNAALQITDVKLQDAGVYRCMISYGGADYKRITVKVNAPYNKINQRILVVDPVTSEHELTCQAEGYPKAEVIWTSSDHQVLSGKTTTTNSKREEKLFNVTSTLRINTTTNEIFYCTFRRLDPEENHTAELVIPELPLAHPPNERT

For `CCCC[C@H]1C(=O)N(C)[C@@H](CCCC)C(=O)N[C@@H](CC(C)C)C(=O)N[C@H](C(=O)NCC(N)=O)CSCC(=O)N[C@@H](Cc2ccc(O)cc2)C(=O)N(C)[C@@H](C)C(=O)N[C@@H](CC(N)=O)C(=O)N2CCC[C@H]2CN[C@@H](CNC(=O)CC[C@@H](C)[C@H]2CC[C@H]3[C@@H]4[C@H](O)C[C@@H]5C[C@H](O)CC[C@]5(C)[C@H]4C[C@H](O)[C@]23C)C(=O)N[C@@H](CC(C)C)C(=O)N2C[C@H](O)C[C@H]2C(=O)N[C@@H](Cc2c[nH]c3ccccc23)C(=O)N[C@@H](CCNC(=O)CC[C@@H](C)[C@H]2CC[C@H]3[C@@H]4[C@H](O)C[C@@H]5C[C@H](O)CC[C@]5(C)[C@H]4C[C@H](O)[C@]23C)C(=O)N[C@@H](Cc2cn(CC(=O)OCCCO)c3ccccc23)C(=O)N1C` [Example 2004], the IC50 under setting [1] was 350 nM. On the same count and under the same terms, with `CCCC[C@H]1C(=O)N(C)[C@@H](CCCC)C(=O)N[C@@H](CC(C)C)C(=O)N[C@H](C(=O)NCC(N)=O)CSCC(=O)N[C@@H](Cc2ccc(O)cc2)C(=O)N(C)[C@@H](C)C(=O)N[C@@H](CC(N)=O)C(=O)N2CCC[C@H]2CN[C@@H](CNC(=O)CC[C@@H](C)[C@H]2CC[C@H]3[C@@H]4[C@H](O)C[C@@H]5C[C@H](O)CC[C@]5(C)[C@H]4C[C@H](O)[C@]23C)C(=O)N[C@@H](CC(C)C)C(=O)N2C[C@H](O)C[C@H]2C(=O)N[C@@H](Cc2c[nH]c3ccccc23)C(=O)N[C@@H](CCNC(=O)CC[C@@H](C)[C@H]2CC[C@H]3[C@@H]4[C@H](O)C[C@@H]5C[C@H](O)CC[C@]5(C)[C@H]4C[C@H](O)[C@]23C)C(=O)N[C@@H](Cc2cn(CC(=O)OCCO)c3ccccc23)C(=O)N1C` [Example 2005] the figure was 210 nM; with `CCCC[C@H]1C(=O)N(C)[C@@H](CCCC)C(=O)N[C@@H](CC(C)C)C(=O)N[C@H](C(=O)NCC(N)=O)CSCC(=O)N[C@@H](Cc2ccc(O)cc2)C(=O)N(C)[C@@H](C)C(=O)N[C@@H](CC(N)=O)C(=O)N2CCC[C@H]2CN[C@@H](CNC(=O)CC[C@@H](C)[C@H]2CC[C@H]3[C@@H]4[C@H](O)C[C@@H]5C[C@H](O)CC[C@]5(C)[C@H]4C[C@H](O)[C@]23C)C(=O)N[C@@H](CC(C)C)C(=O)N2C[C@H](O)C[C@H]2C(=O)N[C@@H](Cc2c[nH]c3ccccc23)C(=O)N[C@@H](CCNC(=O)CC[C@@H](C)[C@H]2CC[C@H]3[C@@H]4[C@H](O)C[C@@H]5C[C@H](O)CC[C@]5(C)[C@H]4C[C@H](O)[C@]23C)C(=O)N[C@@H](Cc2cn(CC(=O)OCCOCCO)c3ccccc23)C(=O)N1C` [Example 2006], 200 nM. Compound `CCCC[C@H]1C(=O)N(C)[C@@H](CCCC)C(=O)N[C@@H](CC(C)C)C(=O)N[C@H](C(=O)NCC(N)=O)CSCC(=O)N[C@@H](Cc2ccc(O)cc2)C(=O)N(C)[C@@H](C)C(=O)N[C@@H](CC(N)=O)C(=O)N2CCC[C@H]2CN[C@@H](CNC(=O)CC[C@@H](C)[C@H]2CC[C@H]3[C@@H]4[C@H](O)C[C@@H]5C[C@H](O)CC[C@]5(C)[C@H]4C[C@H](O)[C@]23C)C(=O)N[C@@H](CC(C)C)C(=O)N2C[C@H](O)C[C@H]2C(=O)N[C@@H](Cc2c[nH]c3ccccc23)C(=O)N[C@@H](CCNC(=O)CC[C@@H](C)[C@H]2CC[C@H]3[C@@H]4[C@H](O)C[C@@H]5C[C@H](O)CC[C@]5(C)[C@H]4C[C@H](O)[C@]23C)C(=O)N[C@@H](Cc2cn(CC(=O)Oc3ccccc3)c3ccccc23)C(=O)N1C` [Example 2007] came in with an IC50 (HTRF IC50, PD-L1-His 10 nM) of 720 nM. For `CCCC[C@H]1C(=O)N(C)[C@@H](CCCC)C(=O)N[C@@H](CC(C)C)C(=O)N[C@H](C(=O)NCC(N)=O)CSCC(=O)N[C@@H](Cc2ccc(O)cc2)C(=O)N(C)[C@@H](C)C(=O)N[C@@H](CC(N)=O)C(=O)N2CCC[C@H]2C(=O)N[C@@H](CNC(=O)CC[C@@H](C)[C@H]2CC[C@H]3[C@@H]4[C@H](O)C[C@@H]5C[C@H](O)CC[C@]5(C)[C@H]4C[C@H](O)[C@]23C)C(=O)N[C@@H](CC(C)C)C(=O)N2C[C@H](O)C[C@H]2C(=O)N[C@@H](Cc2c[nH]c3ccccc23)C(=O)N[C@@H](CCNC(=O)CC[C@@H](C)[C@H]2CC[C@H]3[C@@H]4[C@H](O)C[C@@H]5C[C@H](O)CC[C@]5(C)[C@H]4C[C@H](O)[C@]23C)C(=O)N[C@@H](Cc2cn(CC(=O)NCCCN(CC)CC)c3ccccc23)C(=O)N1C` [Example 2008] ({CH2CO}-Y[NMeA]NP[Dap](Cholyl)L[Hyp]W[Dab](Cholyl)[X18][NMeNle][NMeNle]LCG-NH2; thioether N-14), under setting [1], the IC50 is 95 nM. Same read-out and setting: with `CCCC[C@H]1C(=O)N(C)[C@@H](CCCC)C(=O)N[C@@H](CC(C)C)C(=O)N[C@H](C(=O)NCC(N)=O)CSCC(=O)N[C@@H](Cc2ccc(O)cc2)C(=O)N(C)[C@@H](C)C(=O)N[C@@H](CC(N)=O)C(=O)N2CCC[C@H]2CN[C@@H](CNC(=O)CC[C@@H](C)[C@H]2CC[C@H]3[C@@H]4[C@H](O)C[C@@H]5C[C@H](O)CC[C@]5(C)[C@H]4C[C@H](O)[C@]23C)C(=O)N[C@@H](CC(C)C)C(=O)N2C[C@H](O)C[C@H]2C(=O)N[C@@H](Cc2c[nH]c3ccccc23)C(=O)N[C@@H](CCNC(=O)CC[C@@H](C)[C@H]2CC[C@H]3[C@@H]4[C@H](O)C[C@@H]5C[C@H](O)CC[C@]5(C)[C@H]4C[C@H](O)[C@]23C)C(=O)N[C@@H](Cc2cn(CC(=O)NC3CC3)c3ccccc23)C(=O)N1C` [Example 2009] the figure was 2900 nM; with `CCCC[C@H]1C(=O)N(C)[C@@H](CCCC)C(=O)N[C@@H](CC(C)C)C(=O)N[C@H](C(=O)NCC(N)=O)CSCC(=O)N[C@@H](Cc2ccc(O)cc2)C(=O)N(C)[C@@H](C)C(=O)N[C@@H](CC(N)=O)C(=O)N2CCC[C@H]2CN[C@@H](CNC(=O)CC[C@@H](C)[C@H]2CC[C@H]3[C@@H]4[C@H](O)C[C@@H]5C[C@H](O)CC[C@]5(C)[C@H]4C[C@H](O)[C@]23C)C(=O)N[C@@H](CC(C)C)C(=O)N2C[C@H](O)C[C@H]2C(=O)N[C@@H](Cc2c[nH]c3ccccc23)C(=O)N[C@@H](CCNC(=O)CC[C@@H](C)[C@H]2CC[C@H]3[C@@H]4[C@H](O)C[C@@H]5C[C@H](O)CC[C@]5(C)[C@H]4C[C@H](O)[C@]23C)C(=O)N[C@@H](Cc2cn(CC(=O)NCC(F)(F)F)c3ccccc23)C(=O)N1C` [Example 2010], 4700 nM; with `CCCC[C@H]1C(=O)N(C)[C@@H](CCCC)C(=O)N[C@@H](CC(C)C)C(=O)N[C@H](C(=O)NCC(N)=O)CSCC(=O)N[C@@H](Cc2ccc(O)cc2)C(=O)N(C)[C@@H](C)C(=O)N[C@@H](CC(N)=O)C(=O)N2CCC[C@H]2CN[C@@H](CNC(=O)CC[C@@H](C)[C@H]2CC[C@H]3[C@@H]4C(=O)C[C@@H]5CC(=O)CC[C@]5(C)[C@H]4CC(=O)[C@]23C)C(=O)N[C@@H](CC(C)C)C(=O)N2C[C@H](O)C[C@H]2C(=O)N[C@@H](Cc2c[nH]c3ccccc23)C(=O)N[C@@H](CCNC(=O)CC[C@@H](C)[C@H]2CC[C@H]3[C@@H]4C(=O)C[C@@H]5CC(=O)CC[C@]5(C)[C@H]4CC(=O)[C@]23C)C(=O)N[C@@H](Cc2cn(CC(=O)OC3CC3)c3ccccc23)C(=O)N1C` [Example 2011], 35 nM.

With `CCCC[C@H]1C(=O)N(C)[C@@H](CCCC)C(=O)N[C@@H](CC(C)C)C(=O)N[C@H](C(=O)NCC(N)=O)CSCC(=O)N[C@@H](Cc2ccc(O)cc2)C(=O)N(C)[C@@H](C)C(=O)N[C@@H](CC(N)=O)C(=O)N2CCC[C@H]2CN[C@@H](CNC(=O)CC[C@@H](C)[C@H]2CC[C@H]3[C@@H]4C(=O)C[C@@H]5CC(=O)CC[C@]5(C)[C@H]4CC(=O)[C@]23C)C(=O)N[C@@H](CC(C)C)C(=O)N2C[C@H](O)C[C@H]2C(=O)N[C@@H](Cc2c[nH]c3ccccc23)C(=O)N[C@@H](CCNC(=O)CC[C@@H](C)[C@H]2CC[C@H]3[C@@H]4C(=O)C[C@@H]5CC(=O)CC[C@]5(C)[C@H]4CC(=O)[C@]23C)C(=O)N[C@@H](Cc2cn(CC(=O)OC3CC3)c3ccccc23)C(=O)N1C` [Example 2012], the IC50 under setting [1] was 27 nM. Same read-out and setting: with `CCCCOC(=O)Cn1cc(C[C@@H]2NC(=O)[C@H](CCNC(=O)CC[C@@H](C)[C@H]3CC[C@H]4[C@@H]5C(=O)C[C@@H]6CC(=O)CC[C@]6(C)[C@H]5CC(=O)[C@]34C)NC(=O)[C@H](Cc3c[nH]c4ccccc34)NC(=O)[C@@H]3C[C@@H](O)CN3C(=O)[C@H](CC(C)C)NC(=O)[C@H](CNC(=O)CC[C@@H](C)[C@H]3CC[C@H]4[C@@H]5C(=O)C[C@@H]6CC(=O)CC[C@]6(C)[C@H]5CC(=O)[C@]34C)NC[C@@H]3CCCN3C(=O)[C@H](CC(N)=O)NC(=O)[C@H](C)N(C)C(=O)[C@H](Cc3ccc(O)cc3)NC(=O)CSC[C@@H](C(=O)NCC(N)=O)NC(=O)[C@H](CC(C)C)NC(=O)[C@H](CCCC)N(C)C(=O)[C@H](CCCC)N(C)C2=O)c2ccccc21` [Example 2013] the figure was 41 nM. On the same count and under the same terms, then `CCCCCCOC(=O)Cn1cc(C[C@@H]2NC(=O)[C@H](CCNC(=O)CC[C@@H](C)[C@H]3CC[C@H]4[C@@H]5C(=O)C[C@@H]6CC(=O)CC[C@]6(C)[C@H]5CC(=O)[C@]34C)NC(=O)[C@H](Cc3c[nH]c4ccccc34)NC(=O)[C@@H]3C[C@@H](O)CN3C(=O)[C@H](CC(C)C)NC(=O)[C@H](CNC(=O)CC[C@@H](C)[C@H]3CC[C@H]4[C@@H]5C(=O)C[C@@H]6CC(=O)CC[C@]6(C)[C@H]5CC(=O)[C@]34C)NC[C@@H]3CCCN3C(=O)[C@H](CC(N)=O)NC(=O)[C@H](C)N(C)C(=O)[C@H](Cc3ccc(O)cc3)NC(=O)CSC[C@@H](C(=O)NCC(N)=O)NC(=O)[C@H](CC(C)C)NC(=O)[C@H](CCCC)N(C)C(=O)[C@H](CCCC)N(C)C2=O)c2ccccc21` [Example 2014], with 4600 nM.

(Values after US20230183292A1, “IMMUNOMODULATORS” (priority 2020, published 2023).)
